Test results reported in patent US11124497B1, “Inhibitors of cysteine proteases and methods of use thereof” (priority 2020, dated 2021).
Read-outs that look alike come from different tables or passages of the source.

Columns and labels:
[1] = molecular target: 229E mPRO (Human coronavirus 229E (HCoV-229E), UniProt P0C6X1); assay: 229E mPRO enzymatic assay; assay type: biochemical, Human Coronavirus (HCov) 229E
Description: Compounds were assayed using standard methods to assess compound activity and IC50. […] The assay buffer contained 20 mM of Tris-HCl (pH 7.3), 100 mM of NaCl, 1 mM of EDTA, 5 mM of TCEP and 0.1% BSA.
The compounds were added to an assay plate.
IC50 values of compounds were calculated with the GraphPad Prism software using the nonlinear regression model of log(inhibitor) vs. response—Variable slope (four parameters). The inhibition activity was calculated using the formula below, IC50 values was calculated using the Inhibition % data. Inhibition %=[(Sample−Average ZPE)/(Average HPE−Average ZPE)]*100%^# • ^#HEP: Hundred percent effect controls. […] Containing enzyme+substrate, no compound. • Sample: Compound activity testing wells. Containing compound+enzyme+substrate. • BG: Compound background control wells. Containing compound+substrate, no enzyme.

[2] = molecular target: SARS-COV2 Mpro (Severe acute respiratory syndrome coronavirus 2 (2019-nCoV) (SARS-CoV-2), UniProt P0DTD1); assay: COVID-19 (nCoV-2019, SARS-CoV2) Mpro enzymatic assay; assay type: biochemical; conditions: 25 nM Mpro, 25 μM substrate
[3] = system: HCoV 229E; assay: HCoV 229E cytopathic effect (CPE) assay; assay type: cell-based, Human Coronavirus (HCov) 229E; conditions: unidentified human coronavirus, CellTiter Glo, read-out: 229 ECPE EC50
Description: Compounds were assayed using standard methods against multiple coronaviral strains, including HCoV 229E and OC43 strains. The antiviral activity of compounds was calculated based on the protection of the virus-induced CPE at each concentration normalized by the virus control.
Cytopathic effect (CPE) was measured by CellTiter Glo following the manufacturer's manual. The antiviral activity of compounds was calculated based on the protection of the virus-induced CPE at each concentration normalized by the virus control.

Chain of 229E mPRO (P0C6X1 2966-3267 limits assumed): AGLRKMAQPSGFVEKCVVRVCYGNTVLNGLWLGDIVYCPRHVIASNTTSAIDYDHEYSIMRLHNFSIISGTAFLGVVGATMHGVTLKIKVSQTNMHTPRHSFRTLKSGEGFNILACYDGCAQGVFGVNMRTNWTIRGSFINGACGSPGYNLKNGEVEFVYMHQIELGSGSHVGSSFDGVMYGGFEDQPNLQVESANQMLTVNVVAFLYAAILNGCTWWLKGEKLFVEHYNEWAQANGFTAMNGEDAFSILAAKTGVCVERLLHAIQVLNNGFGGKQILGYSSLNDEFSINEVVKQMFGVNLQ

| SMILES | IC50 ([1]; read-out: 229E mPRO IC50) [µM] | IC50 [2] [µM] | EC50 [3] [µM] | IC50 ([1]; 229E mPRO IC50 (μM)) [µM] |
| --- | --- | --- | --- | --- |
| COc1cccc2[nH]c(C(=O)N[C@@H](CC(C)C)C(=O)N[C@@H](C#N)Cc3cc(=O)[nH]c4ccccc34)cc12 (mixture of isomers) [Compound 237] | > 30 | > 30 | – | – |
| COc1cccc2[nH]c(C(=O)N[C@@H](CC(C)C)C(=O)N[C@H](C#N)Cc3cc[nH]n3)cc12 (mixture of isomers) [Compound 241] | > 30 | > 30 | – | – |
| COc1cccc2[nH]c(C(=O)N[C@@H](CC(C)C)C(=O)N[C@H](C#N)Cc3n[nH]c4ccccc34)cc12 (mixture of isomers) [Compound 245] | > 30 | – | – | – |
| COc1cccc2[nH]c(C(=O)N[C@@H](CC(C)C)C(=O)N[C@@H](C[C@@H]3CCNC3=O)C(C#N)N3CCCC3)cc12 (single isomer, unassigned) [331 (Isomer 1)] | < 22 | – | < 22 | – |
| COc1cccc2[nH]c(C(=O)N[C@@H](CC(C)C)C(=O)N[C@@H](C[C@@H]3CCNC3=O)C(C#N)N3CCCC3)cc12 (single isomer, unassigned) [331 (Isomer 2)] | < 22 | – | – | – |
| CC(C)C[C@H](NC(=O)CC(C)(O)c1ccc(Cl)cc1)C(=O)N[C@H](C#N)C[C@@H]1CCNC1=O (single isomer, unassigned) [365 (Isomer 1)] | – | – | – | 2 to 10 |
| COc1cccc2[nH]c(C(=O)N3CC(C45CC(C4)C5)C[C@H]3C(=O)N[C@H](C#N)C[C@@H]3CCNC3=O)cc12 (single isomer, unassigned) [385 (Isomer 1)] | < 22 | – | < 22 | – |
| COc1cccc2[nH]c(C(=O)N3CC(C45CC(C4)C5)C[C@H]3C(=O)N[C@H](C#N)C[C@@H]3CCNC3=O)cc12 (single isomer, unassigned) [385 (Isomer 2)] | < 22 | – | – | – |
| CC(C)(C)OC(=O)N1CCCCC12CCN([C@@H](CC1CC1)C(=O)N[C@H](C#N)C[C@@H]1CCNC1=O)C2=O (single isomer, unassigned) [473 (Isomer 1)] | > 30 | – | – | – |
| CC(C)(C)OC(=O)N1CCCCC12CCN([C@@H](CC1CC1)C(=O)N[C@H](C#N)C[C@@H]1CCNC1=O)C2=O (single isomer, unassigned) [473 (Isomer 2)] | > 30 | > 30 | – | – |
| COc1cccc2[nH]c(C(=O)N[C@@H](CC3CC3)C(=O)N[C@@]3(C#N)CC4CCC3[C@H]3C(=O)NC(=O)[C@@H]43)cc12 (single isomer, unassigned) [489 (Isomer 1)] | > 30 | > 30 | – | – |
| N#C[C@H](C[C@@H]1CCCNC1=O)NC(=O)[C@H](CC1CC1)NC(=O)c1cc2cccc(Cl)c2[nH]1 (single isomer, unassigned) [639 (Isomer 1)] | < 22 | – | < 22 | – |
| COc1cccc2[nH]c(C(=O)N[C@@H](CC(C)C)C(=O)N[C@H](C#N)C[C@@H]3CCNC3=O)cc12 [Compound 101, N-[(1S)-1-[[(1S)-1-cyano-2-[(3S)-2-oxopyrrolidin-3-yl]ethyl]carbamoyl]-3-methyl-butyl]-4-methoxy-1H-indole-2-carboxamide] | < 22 | – | < 22 | – |
| COc1cccc2[nH]c(C(=O)N[C@H](C(=O)N[C@H](C#N)C[C@@H]3CCNC3=O)[C@@H]3Cc4ccccc4O3)cc12 [Compound 147] | > 30 | – | – | – |
| COc1cccc2[nH]c(C(=O)N[C@H](C(=O)N[C@H](C#N)C[C@@H]3CCNC3=O)C3Cc4ccccc4C3)cc12 [Compound 149, N-[(1S)-2-[[(1S)-1-cyano-2-[(3S)-2-oxopyrrolidin-3-yl]ethyl]amino]-1-indan-2-yl-2-oxo-ethyl]-4-methoxy-1H-indole-2-carboxamide] | 2 to 10 | – | 2 to 10 | – |
| COc1cccc2[nH]c(C(=O)N[C@@H](Cc3cccc(Cl)c3)C(=O)N[C@H](C#N)C[C@@H]3CCNC3=O)cc12 [Compound 153] | 10 to 30 | – | – | – |
| COc1cccc2[nH]c(C(=O)N3C[C@H](OC(C)(C)C)C[C@H]3C(=O)N[C@H](C#N)C[C@@H]3CCNC3=O)cc12 [Compound 165, (2S,4R)-4-(tert-butoxy)-N—((S)-1-cyano-2-((S)-2-oxopyrrolidin-3-yl)ethyl)-1-(4-methoxy-1H-indole-2-carbonyl)pyrrolidine-2-carboxamide] | > 30 | – | – | – |
| COc1cccc2[nH]c(C(=O)N3C[C@H](C4CCCCC4)C[C@H]3C(=O)N[C@H](C#N)C[C@@H]3CCNC3=O)cc12 [Compound 167, (2S,4S)—N—((S)-1-cyano-2-((S)-2-oxopyrrolidin-3-yl)ethyl)-4-cyclohexyl-1-(4-methoxy-1H-indole-2-carbonyl)pyrrolidine-2-carboxamide] | 2 to 10 | – | – | – |
| COc1cccc2[nH]c(C(=O)N3CCC4(CC4)C[C@H]3C(=O)N[C@H](C#N)C[C@@H]3CCNC3=O)cc12 [Compound 183, (S)—N—((S)-1-cyano-2-((S)-2-oxopyrrolidin-3-yl)ethyl)-6-(4-methoxy-1H-indole-2-carbonyl)-6-azaspiro[2.5]octane-5-carboxamide] | 2 to 10 | – | – | – |
| N#C[C@H](C[C@@H]1CCNC1=O)NC(=O)[C@@H]1C[C@@H](c2ccccc2)CN1C(=O)/C=C/c1ccc(Cl)cc1F [Compound 209, (2S,4S)-1-((E)-3-(4-chloro-2-fluorophenyl)acryloyl)-N—((S)-1-cyano-2-((S)-2-oxopyrrolidin-3-yl)ethyl)-4-phenylpyrrolidine-2-carboxamide] | 10 to 30 | – | – | – |
| N#C[C@H](C[C@@H]1CCNC1=O)NC(=O)[C@@H]1CCCNN1C(=O)/C=C/c1ccc(Cl)cc1F [Compound 213, (S)-2-((E)-3-(4-chloro-2-fluorophenyl)acryloyl)-N—((S)-1-cyano-2-((S)-2-oxopyrrolidin-3-yl)ethyl)hexahydropyridazine-3-carboxamide] | > 30 | – | – | – |

| SMILES | IC50 ([1]; read-out: 229E mPRO IC50) [µM] | IC50 [2] [µM] | EC50 [3] [µM] | IC50 ([1]; 229E mPRO IC50 (μM)) [µM] |
| --- | --- | --- | --- | --- |
| CN1CCCC[C@]12CCN([C@@H](CC1CC1)C(=O)N[C@H](C#N)C[C@@H]1CCNC1=O)C2=O [Compound 273C] | 2 to 10 | – | – | – |
| CCCN1C(=N)C([C@H](C[C@@H]2CCNC2=O)NC(=O)[C@H](CC(C)C)NC(=O)c2cc3c(OC)cccc3[nH]2)OC1=O (stereo partly drawn) [Compound 355] | 2 to 10 | – | > 30 | – |
| COc1cccc2[nH]c(C(=O)N[C@@H](CC(C)C)C(=O)N[C@@H](C[C@@H]3CCNC3=O)C3OC(=O)N(C(C)C)C3=N)cc12 (stereo partly drawn) [Compound 357] | > 30 | – | – | – |
| COc1cccc2[nH]c(C(=O)N[C@@H](CC(C)C)C(=O)N[C@@H](C[C@@H]3CCNC3=O)C3OC(=O)N(c4ccccc4)C3=N)cc12 (stereo partly drawn) [Compound 359] | 10 to 30 | – | – | – |
| CCCOc1cccc2[nH]c(C(=O)N[C@@H](CC(C)C)C(=O)N[C@H](C#N)C[C@@H]3CCNC3=O)cc12 [Compound 379] | < 22 | – | < 22 | – |
| COc1cccc2[nH]c(C(=O)N3CC4(CCOCC4)CC3C(=O)N[C@H](C#N)C[C@@H]3CCNC3=O)cc12 (stereo partly drawn) [Compound 387] | > 30 | – | – | – |
| COc1cccc2[nH]c(C(=O)N3C[C@H](OC)C[C@H]3C(=O)N[C@H](C#N)C[C@@H]3CCNC3=O)cc12 [Compound 407] | < 22 | – | < 22 | – |
| N#C[C@H](C[C@@H]1CCNC1=O)NC(=O)[C@H](CC1CC1)N1CCC2(CCCN2)C1=O (stereo partly drawn) [Compound 471] | 10 to 30 | – | – | – |
| N#C[C@H](C[C@@H]1CCNC1=O)NC(=O)[C@@H]1CS[C@H]2CC[C@H](NC(=O)OCC3c4ccccc4-c4ccccc43)C(=O)N21 [Compound 477] | > 30 | – | – | – |
| CC(C)C[C@H](NC(=O)c1cc2c(OC(F)F)cccc2[nH]1)C(=O)N[C@H](C#N)C[C@@H]1CCNC1=O [Compound 509] | < 22 | – | < 22 | – |
| N#C[C@H](C[C@@H]1CCNC1=O)NC(=O)[C@H](CC1CC1)NC(=O)c1cc2cc(Cl)ccc2[nH]1 [Compound 519] | < 22 | – | < 22 | – |
| N#C[C@H](C[C@@H]1CCNC1=O)NC(=O)[C@H](CC1CC1)NC(=O)c1cc2cccc(Cl)c2[nH]1 [Compound 531, 7-chloro-N-[(1S)-2-[[(1S)-1-cyano-2-[(3S)-2-oxopyrrolidin-3-yl]ethyl]amino]-1-(cyclopropylmethyl)-2-oxo-ethyl]-1H-indole-2-carboxamide] | < 22 | – | < 22 | – |
| CCO[C@@H]1C[C@@H](C(=O)N[C@H](C#N)C[C@@H]2CCNC2=O)N(C(=O)c2cc3c(OC)cccc3[nH]2)C1 [Compound 535] | > 30 | – | – | – |
| COc1cccc2[nH]c(C(=O)N[C@@H](CC3CCC3)C(=O)N[C@H](C#N)C[C@@H]3CCNC3=O)cc12 [Compound 577] | < 22 | – | < 22 | – |
| CCCNC(=O)OC(C#N)[C@H](C[C@@H]1CCNC1=O)NC(=O)[C@H](CC(C)C)NC(=O)c1cc2c(OC)cccc2[nH]1 (stereo partly drawn) [Compound 581] | > 30 | – | – | – |
| COc1cccc2[nH]c(C(=O)N[C@@H](CC(C)C)C(=O)N[C@@H](C[C@@H]3CCNC3=O)C(C#N)OC(=O)NC(C)C)cc12 (stereo partly drawn) [Compound 583] | > 30 | – | – | – |
| CC(C)C[C@H](NC(=O)/C=C/c1ccc(Cl)cc1F)C(=O)N[C@H](C#N)C[C@@H]1CCNC1=O [Compound 598] | 2 to 10 | – | < 22 | – |
| COc1cccc2[nH]c(C(=O)N[C@@H](CC(C)(C)C)C(=O)N[C@H](C#N)C[C@@H]3CCCNC3=O)cc12 [Compound 643, N-[(1S)-1-[[(1S)-1-cyano-2-[(3S)-2-oxo-3-piperidyl]ethyl]carbamoyl]-3,3-dimethyl-butyl]-4-methoxy-1H-indole-2-carboxamide] | < 22 | – | < 22 | – |
| COc1ccc(Cl)c2[nH]c(C(=O)N[C@@H](CC(C)(C)C)C(=O)N[C@H](C#N)C[C@@H]3CCCNC3=O)cc12 [Compound 737] | – | – | < 22 | – |
| COc1c(Cl)ccc2[nH]c(C(=O)N[C@@H](CC(C)(C)C)C(=O)N[C@H](C#N)C[C@@H]3CCCNC3=O)cc12 [Compound 739] | – | – | < 22 | – |
| CC(C)(C)C[C@H](NC(=O)c1cc2ccc(Cl)cc2[nH]1)C(=O)N[C@H](C#N)C[C@@H]1CCCNC1=O [Compound 745] | – | – | < 22 | – |
